Columns and labels:
[1] = molecular target: T1, trypsin (PRSS2) (Mus musculus, UniProt P07146); experiment: Ex vivo incubation of mouse faeces at 37° C. for 48 hours, western blot; details: faeces of GF mice inoculated together with 2-mix, 37° C. 48 hours
T1 construct: the anionic trypsin protease was abundantly present in the cecal contents and the faeces; from tissue; host or cells: faeces and cecal contents of germ-free / gnotobiotic mice
T1 sequence (P07146 24-246): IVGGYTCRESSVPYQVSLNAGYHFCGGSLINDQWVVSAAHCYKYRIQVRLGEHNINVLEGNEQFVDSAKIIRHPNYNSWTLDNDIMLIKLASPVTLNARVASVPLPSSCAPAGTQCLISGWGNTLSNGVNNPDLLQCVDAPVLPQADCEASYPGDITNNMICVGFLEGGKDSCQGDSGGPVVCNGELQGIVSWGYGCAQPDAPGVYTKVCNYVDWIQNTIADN
Description: (§1) Mouse faecal samples were suspended and diluted 50-fold with phosphate buffered saline (PBS) to which a protease inhibitor cocktail (Roche) was added. Subsequently, the suspended sample was centrifuged at 15,000×g for 10 minutes at 4° C., and the supernatant was subjected to western blot. Mouse pancreatic tissue was rapidly frozen in liquid nitrogen. Proteins were extracted by TRIzol Reagent (Thermo Fisher Scientific K.K.), and the final protein concentration was adjusted to 4 μg/μL. For SDS-PAGE and blotting, Novex (registered trademark) NuPAGE (registered trademark) SDS-PAGE Gel system (Thermo Fisher Scientific K.K.) and iBlotTM 2 Dry Blotting System (Thermo Fisher Scientific K.K.) were used according to the manufacturer's instructions. The antibodies used are as follows. A rabbit anti-mouse PRSS2 antibody (Cosmo Bio Co., Ltd.), a rabbit anti-mouse HSP90 antibody (#4877, Cell Signaling Technology, Inc.), a rabbit anti-human PRSS2 antibody (LS-B15726, LSBio), a rabbit anti-human PRSS1 antibody (LS-331381, LSBio), a rabbit anti-mouse TMPRSS2 antibody (LS-C373022, LSBio, against the sequence of the protease domain), a rabbit anti-6-His antibody ([…]-[…], Bethyl Laboratories, Inc.), a goat anti-mouse IgA a chain antibody (HRP) (ab97235, Abcam plc.), a rat anti-mouse κ chain antibody (HRP) (ab99632, Abcam plc.), a rabbit anti-mouse CELA3b antibody (OACD03205, Aviva Systems Biology Corporation), an anti-rabbit IgG antibody (HRP) (#7074, Cell Signaling Technology, Inc.), and a rabbit anti-mouse Reg3 antibody (51153-[…], Sino Biological, Inc.).

[2] = system: IgA heavy chain; experiment: as above; details: faeces of GF mice inoculated together with 2-mix, 37° C. 48 hours
Description: as §1

[3] = molecular target: T2, recombinant mouse PRSS2 (Mus musculus, UniProt P07146); experiment: Trypsin decomposition in vitro by bacteria (western blot); assay type: biochemical; details: bacteria or culture supernatant incubated with recombinant mouse trypsin
T2 construct: purchased Sino Biological, Inc. 50383-M08H
T2 sequence (P07146 24-246): T1 sequence (P07146 24-246)
Description: Mouse faecal samples were suspended and diluted 50-fold with phosphate buffered saline (PBS) to which a protease inhibitor cocktail (Roche) was added. Subsequently, the suspended sample was centrifuged at 15,000×g for 10 minutes at 4° C., and the supernatant was subjected to western blot. Mouse pancreatic tissue was rapidly frozen in liquid nitrogen. Proteins were extracted by TRIzol Reagent (Thermo Fisher Scientific K.K.), and the final protein concentration was adjusted to 4 μg/μL. For SDS-PAGE and blotting, Novex (registered trademark) NuPAGE (registered trademark) SDS-PAGE Gel system (Thermo Fisher Scientific K.K.) and iBlot™ 2 Dry Blotting System (Thermo Fisher Scientific K.K.) were used according to the manufacturer's instructions.
The bacteria cultured overnight were incubated with recombinant mouse trypsin (final concentration: 1 μg/mL) for 1 hour or with human trypsin (final concentration: 20 μg/mL) for 4 hours. Recombinant trypsin isoforms used were as follows: recombinant mouse PRSS2 (50383-M08H, Sino Biological, Inc.), recombinant human PRSS1 (LS-G135640), recombinant human PRSS2 (LS-G20167), and recombinant human PRSS3 (His-tag) (NBP2-52220).
In some experiments, recombinant mouse PRSS2 was first treated with one of the following trypsin inhibitors for 30 minutes before incubation with a P. clara culture solution. AEBSF (Sigma-Aldrich, final concentration: 2 mM), Leupeptin (Sigma-Aldrich, final concentration: 100 μM), and TLCK (Abcam plc., final concentration: 100 μM).
In some experiments, P. clara was cultured overnight in the presence of Tunicamycin (Sigma-Aldrich, final concentration: 10 μg/mL), 2-Fluoro-L-fucose (Cayman Chemical Company, final concentration: 250 μM), or the corresponding DMSO control, before incubation with recombinant mouse PRSS2.
In the experiment of evaluating the effect of Ca^2+, P. clara was cultured in a low Ca^2+ mGAM medium supplemented with or without 1 mM of Ca^2+, before incubation with recombinant mouse PRSS2. In the experiment in which the supernatant of P. clara was used, P. clara cultured overnight was filtered through a sterilization filter unit formed using a PVDF film having a pore size of 0.22 μm.

For Paraprevotella clara [JCM 14859], the trypsin in faeces [1] was “reduced”, the “IgA heavy chain in faeces” value [2] was “remained” and the “decomposition of rmPRSS2 (western blot)” value [3] was “effect of reducing trypsin”.

From patent US20240408170A1, “COMPOSITION FOR DECOMPOSITION OF TRYPSIN OR TMPRSS2” (Riken, priority 2021, published 2024)
